Data published in article PMC8727943, “Identification and characterization of a novel glutaminase inhibitor” (FEBS Open Bio, 2021).
Values joined by “and” are separate entries in the source; they are usually repeats but may differ in a detail not shown here. Equal values may be shown once. “Also recorded” adds a separate entry of the source. Read-outs that look alike come from different tables or passages of the source.

Assays:
GLS1 = settings: cited from earlier work; for potency of GLS1 inhibition in vitro: varying with cell types; for fold increased inhibitory efficiency compared with DON and BPTES: GLS inhibitors
[1] = design: method as in PMID 30148361; settings: cited from earlier work
[2] = design: method as in PMID 30148361; settings: cited from earlier work; remark: listed apart in the source
cells = tested on: cells; design: method as in PMID 909432, PMID 4587126; settings: cited from earlier work
[3] = target: T1, recombinant human glutaminase Δ129GAC (Homo sapiens, UniProt O94925); assay: Coupled GLS/GDH enzyme assay (HTS and dose response), NADH readout; assay type: biochemical; settings: for IC50: 10-point dose response, twofold serial dilution 0.39–200 µM, nonlinear curve fitting, read-out: IC50 for Δ129GAC inhibition; for inhibition at 10 µM: HTS, compound 10 µM, read-out: inhibition of Δ129GAC, positive hits of HTS counter screen; for inhibition of His-Δ129GAC reached in the dose response: dose response 0.39–200 µM
T1 construct: to generate peptides from amino acids 17‐598 and 73‐598 and 130‐598, respectively; made in house; host or cells: Escherichia coli BL21DE3 Rosetta (pRARE)
T1 sequence (O94925 130-598 isoform O94925-3): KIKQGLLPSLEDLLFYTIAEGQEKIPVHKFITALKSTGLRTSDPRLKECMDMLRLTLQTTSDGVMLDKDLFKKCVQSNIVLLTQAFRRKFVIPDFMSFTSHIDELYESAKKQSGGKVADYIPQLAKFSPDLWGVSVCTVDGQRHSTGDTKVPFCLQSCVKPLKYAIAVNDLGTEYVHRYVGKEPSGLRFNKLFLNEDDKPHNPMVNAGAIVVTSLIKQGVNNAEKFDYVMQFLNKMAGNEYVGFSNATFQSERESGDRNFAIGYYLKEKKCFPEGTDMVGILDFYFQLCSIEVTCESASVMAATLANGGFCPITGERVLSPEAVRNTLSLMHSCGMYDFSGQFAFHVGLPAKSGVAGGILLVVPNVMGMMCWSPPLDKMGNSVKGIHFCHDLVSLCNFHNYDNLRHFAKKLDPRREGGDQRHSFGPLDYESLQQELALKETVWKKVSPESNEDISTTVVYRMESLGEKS
Procedure: The assay used to determine GLS activity for HTS and enzyme kinetics measurements was adapted from Cassago et al.. In brief, this assay determines the activity of GLS by measuring the amount of NADH produced by glutamate dehydrogenase (GDH) when converting glutamate to α‐ketoglutarate. […] For HTS, the enzyme assay was run using the following conditions: 6 nM Δ129GAC, 50 mM Tris‐acetate, pH 8.6, 3 units of bovine serum GDH (Sigma‐Aldrich), 2 mM NAD^+ (Roche, Basel, Switzerland), 4 mM glutamine, 50 mM K2PO4 (MERCK, Kenilworth, NJ, USA) and 0.005% Tween‐20 (Sigma‐Aldrich). […] 10 nL of each compound was applied to the wells using an ECHO 550 liquid handler (Labcyte, Sunnyvale, CA, USA) followed by dispensing and mixing of 5 µL enzyme assay mix (Hamilton Microlab Star, Reno, NV, USA). This mix was incubated at room temperature for 1 h. Columns 23 and 24 on the plate contained wells for positive and negative controls to determine Z‐factor values. Z‐factor value was calculated based on formula 1: Formula1:[…] σp is the SD of the positive control, σn is the SD of the negative control, µp is the mean of the positive control and µn is the mean of the negative control. Following 1‐h incubation, 5 µL of glutamine (final concentration 4 mM) was added.
To become enzymatically active, the first 16 and 72 amino acids at the N‐terminal must be sequentially deleted in the mitochondria from endogenous GLSGAC [6]. We cloned and expressed three variants of GAC, Δ16GAC, Δ72GAC and Δ129GAC (Fig. 1A,B). […] Next, Δ129GAC PCR product was cloned into pET‐24(b) which contained DNA encoding sequence for a His‐tag. […] Using His‐Δ129GAC, a HTS GAC enzyme activity assay was modified according to Cassago et al.. Briefly, the assay is a two‐step enzymatic assay where glutamine converted to glutamate by His‐Δ129GAC and further to α‐ketoglutarate and NADH by GDH (Fig. 1D). The glutamine consumption activity of His‐Δ129GAC was determined by assuming a stoichiometric ratio of one glutamine consumed to every molecule of NADH produced.

[4] = target: T1, recombinant human glutaminase Δ129GAC; assay: Steady-state kinetic analysis of Δ129GAC in the presence of C19; assay type: biochemical
Procedure: […] of NADH in the HTS was measured at 340 nm after 5 min, and quantification was done by using the extinction coefficient for NADH of 6220 M^−1·cm^−1 and 7.7 mm of path length. The total reaction volume was 80 µL, and the measurements were performed on a FluoStar Optima (BMB Labtech, Ortenberg, Germany) microplate reader. The experiments were done in 5 replicates at 12 different substrate concentrations ranging from 0.39 to 50 mM. The kinetics were determined at compound concentrations of 16, 25 and 30 µM.

His-Δ129GAC = target: T2, His-Δ129GAC (Homo sapiens, UniProt O94925); assay: Microscale thermophoresis (MST), labelled and nonlabelled; assay type: binding; settings: 25 °C
T2 construct: to generate peptides from amino acids 17‐598 and 73‐598 and 130‐598, respectively; made in house; host or cells: Escherichia coli BL21DE3 Rosetta (pRARE)
T2 sequence (O94925 130-598 isoform O94925-3): T1 sequence (O94925 130-598 isoform O94925-3)
Procedure: For the nonlabelled microscale thermophoresis (MST) assay, a 16‐point titration series of compound was done in a protein concentration of 100 nM Δ129GAC. […] Samples were loaded into Zero Background MST Premium Coated Capillaries, and measurements were done with a Monolith NT Label‐Free instrument (NanoTemper) at 25 °C using 20% MST power and 20% excitation power. […] For labelled analyses, MST Premium Coated Capillaries were used. The experiments were performed in duplicates and data presented as mean values ± standard deviation (SD). Data were normalized and nonlinear curve fitted using […] PRISM version 6 (La Jolla, CA, USA).

human CD4+ T cells = assay: CFSE-based anti-CD3/CD28-induced CD4+ T-cell proliferation assay; settings: for percentage of proliferating cells (CFSE dilution), mean: compound 25 µM, anti-CD3/CD28 beads 1:1, 96 h, stimulated control 71.70% ± 1.60
Procedure: Human CD4+ T cells were isolated from buffy coats of healthy donors (obtained from Blodbanken, Oslo, Norway) using the Dynabeads CD4 Positive Isolation Kit (Life Technologies AS, Norway) according to the manufacturer's protocol. […] After 4 days of incubation, beads were removed; cells were washed with 1x PBS, and T‐cell proliferation was assessed by measuring the CFSE dilution using flow cytometry.

[5] = tested on: cytokine production of anti-CD3/CD28-stimulated CD4+ T cells; assay: Luminex screening assay of cytokines in T-cell culture supernatants; assay type: cell-based, human; settings: compound 25 µM, day 3, normalized to stimulated control
Procedure: Supernatants from T‐cell cultures were harvested after 3 days of stimulation and stored at −20 °C. Samples were diluted twofold, and the human magnetic luminex screening assay (R&D Systems, Minneapolis, MN, USA) for TNF‐α, IL‐6, IL‐10, INF‐g, IL‐4, IL‐17α, IL‐2 was performed according to manufacturer’s instructions. Data were analysed with Milliplex Analyst (Merck Millipore) and standard curves set according to manufacturer's recommendations.

[6] = tested on: anti-CD3/CD28-induced CD4+ T cells; settings: cited from earlier work
[7] = target: T3, glutamate dehydrogenase (GDH) (Bos taurus, UniProt P00366); assay: GDH counter assay (secondary enzyme of the coupled assay); assay type: biochemical, bovine
T3 construct: purchased Sigma‐Aldrich

MDA-468 TNBC cells = assay: Thymidine incorporation proliferation assay, MDA-468; assay type: cell-based; settings: 72 h, read-out: IC50 proliferation MDA-468, thymidine incorporation after 72 h
MDA-231 TNBC cells = assay: Thymidine incorporation proliferation assay, MDA-231; assay type: cell-based; settings: Homo sapiens, MDA-MB-231, 72 h, read-out: IC50 proliferation MDA-231

T3 sequence (P00366 58-558): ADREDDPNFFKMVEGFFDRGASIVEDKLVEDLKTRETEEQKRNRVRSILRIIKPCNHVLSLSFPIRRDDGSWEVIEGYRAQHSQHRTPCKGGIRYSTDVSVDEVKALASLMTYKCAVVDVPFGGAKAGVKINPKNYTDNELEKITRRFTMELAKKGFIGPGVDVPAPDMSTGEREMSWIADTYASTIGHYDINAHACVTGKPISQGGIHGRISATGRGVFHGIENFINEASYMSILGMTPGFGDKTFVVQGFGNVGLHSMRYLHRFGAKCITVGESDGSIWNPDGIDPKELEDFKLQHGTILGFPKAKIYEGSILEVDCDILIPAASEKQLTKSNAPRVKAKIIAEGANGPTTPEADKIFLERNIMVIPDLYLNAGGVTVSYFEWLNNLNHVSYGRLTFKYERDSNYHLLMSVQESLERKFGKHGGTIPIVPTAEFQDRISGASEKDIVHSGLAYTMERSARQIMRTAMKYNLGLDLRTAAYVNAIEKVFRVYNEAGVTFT

Question: With `CN(C)c1ccc(C2Nc3ccc4ccccc4c3C3=C2C(=O)CC(C)(C)C3)cc1Br` (stereo not shown) [compound 968, 5‐(3‐Bromo‐4‐(dimethylamino)phenyl)‐2,2‐dimethyl‐2,3,5,6‐tetrahydrobenzo[a]phenanthridin‐4(1H)‐one] as the compound, how does the “potency of GLS1 inhibition in vitro” value (GLS1) read?
Answer: 2.5 µM

Question: What about the aqueous solubility [1] of the same compound?
Answer: poor

Question: What about the metabolic stability [2] of the same compound?
Answer: poor

Question: For `O=c1c2ccccc2[se]n1-c1ccccc1` [ebselen], which “fold increased inhibitory efficiency compared with DON and BPTES” value (“fold increased inhibitory efficiency” below) (GLS1) is on record?
Answer: over 100 fold

Question: For `[N-]=[N+]=CC(=O)CC[C@H](N)C(=O)O` [DON, 6‐diazo‐5‐oxonorleucine], which “off-target toxicity to cells” value (cells) is on record?
Answer: toxic to cells

Question: With `O=C(NCCNc1nc2ccccc2s1)c1cccnc1S` [C19] as the compound, how does the IC50 [3] read?
Answer: 6.8 µM

Question: What about the inhibition at 10 µM [3] of the same compound?
Answer: ≥ 50%

Question: And the “mode of inhibition with respect to the substrate” value ([4]; C19 0, 16, 25, 30 µM)?
Answer: noncompetitive inhibitor; also recorded: noncompetitive inhibition

Question: What about the “effect on Km of His-Δ129GAC” value ([4]; C19 0–30 µM) of the same compound?
Answer: not significantly affected

Question: And the K cat ([4]; [I] 16 µM C19)?
Answer: 23.03 ± 0.6245 s⁻¹

Question: What about the V max ([4]; [I] 16 µM C19, 6 nM Δ129GAC) of the same compound?
Answer: 44.22 ± 1.1990 pmol/s

Question: And the K cat ([4]; [I] 25 µM C19)?
Answer: 16.46 ± 0.6640 s⁻¹

Question: And the V max ([4]; [I] 25 µM C19, 6 nM Δ129GAC)?
Answer: 31.59 ± 1.2750 pmol/s

Question: What about the K cat ([4]; [I] 30 µM C19) of the same compound?
Answer: 12.31 ± 0.2425 s⁻¹

Question: And the V max ([4]; [I] 30 µM C19, 6 nM Δ129GAC)?
Answer: 23.63 ± 0.47 pmol/s and 23.63 ± 0.4655 pmol/s

Question: What about the Kd (His-Δ129GAC; 100 nM nonlabelled Δ129GAC, C19 0–1000 µM, read-out: Kd, nonlabelled MST) of the same compound?
Answer: 20 ± 4.8 µM

Question: What about the Kd (His-Δ129GAC; NT-647-labelled Δ129GAC 25 nM, read-out: Kd, labelled MST) of the same compound?
Answer: 14.7 µM

Question: What about the IC50 (human CD4+ T cells; Homo sapiens, CD4+ T cell) of the same compound?
Answer: 11 µM

Question: What about the “percentage of proliferating cells (CFSE dilution), mean” value (human CD4+ T cells) of the same compound?
Answer: 9.16%

Question: What about the “levels of TNF-α, IL-10, IL-2, IL-6, INF-γ, IL-17A and IL-4 in supernatants” value [5] of the same compound?
Answer: significant decrease; also recorded: significantly better than BPTES

Question: Which “percentage of proliferating cells (CFSE dilution), mean” value (human CD4+ T cells) does the source give for `O=C(Cc1ccccc1)Nc1nnc(CCSCCc2nnc(NC(=O)Cc3ccccc3)s2)s1` [BPTES, bis‐2‐(5‐phenylacetamido‐1,3,4‐thiadiazol‐2yl)ethyl sulfide] here?
Answer: 15.03%

Question: What about the “inhibition of cytokine production, active range” value [6] of the same compound?
Answer: high micromolar range

Question: For `COc1ccc2c(c[n+](C)c3c4cc5c(cc4ccc23)OCO5)c1OC` [chelerythrine], which “fold increased inhibitory efficiency” value (GLS1) is on record?
Answer: over 100 fold

Question: With `CN1CCc2cccc3c2[C@H]1Cc1ccc(O)c(O)c1-3` [apomorphine] as the compound, how does the “fold increased inhibitory efficiency” value (GLS1) read?
Answer: over 100 fold

Question: Which “effect on GDH activity” value ([7]; 30 nM CB839, measured after 20 min, glutamate as substrate) does the source give for `O=C(Cc1cccc(OC(F)(F)F)c1)Nc1ccc(CCCCc2nnc(NC(=O)Cc3ccccn3)s2)nn1` [CB839, Telaglenastat] here?
Answer: no effect on GDH activity; also recorded: no inhibition effect

Question: What about the “effect on GDH activity” value ([7]; 10 µM CB839 for 2 h) of the same compound?
Answer: did not influence GDH activity

Question: And the IC50 (MDA-468 TNBC cells)?
Answer: 11.2 nM

Question: What about the IC50 (MDA-231 TNBC cells) of the same compound?
Answer: 0.19 nM

Question: Which results are given for `Cc1ccc(-c2nnc3n2CCCCC3)cc1NC(=O)Cc1sc(S)nc1C` [C15]?
Answer: IC50 [3]: 5.7 µM; inhibition at 10 µM [3]: ≥ 50%; inhibition of His-Δ129GAC reached in the dose response [3]: incapable of completely inhibiting; inhibition of His-Δ129GAC reached in the dose response ([3]; listed as 15): did not inhibit Δ129GAC activity by 100%; inhibition of CD3/CD28-induced CD4+ T-cell proliferation (human CD4+ T cells): not

Question: What does the source list for `Sc1nc(-c2ccccc2)cn1N=Cc1ccncc1` [C2]?
Answer: IC50 [3]: 2.3 µM; inhibition at 10 µM [3]: ≥ 50%; inhibition of His-Δ129GAC reached in the dose response [3]: did not inhibit Δ129GAC activity by 100%; also recorded: incapable of completely inhibiting; inhibition of CD3/CD28-induced CD4+ T-cell proliferation (human CD4+ T cells): not
